Where two headings read alike, the source gives them in different places. Starred links: 1 amine or outer side, 2 acyl side, 3 side chain; linkers in the order of their positions; H or OH if unused. Positions of bridges follow the written chain, without caps; N, C: chain ends. Non-standard residues stand in square brackets, D forms with d. Residues, ends and D or L forms follow the SMILES beside them. Phe(3-OCH2COOH) = N[C@@H](Cc1cccc(OCC(=O)O)c1)C(=O)O; Phe(4-COOH) = N[C@@H](Cc1ccc(C(=O)O)cc1)C(=O)O; Bip = N[C@@H](Cc1ccc(-c2ccccc2)cc1)C(=O)O; Gly(N(CH2)3COOH) = O=C(O)CCCNCC(=O)O; NMeY = CN[C@@H](Cc1ccc(O)cc1)C(=O)O; X1 = CCCCCCC[C@H](N[*:1])C(=O)[*:2]; NMeF = CN[C@@H](Cc1ccccc1)C(=O)O; d(hCys) = N[C@H](CCS)C(=O)O; NMeC = CN[C@@H](CS)C(=O)O; hCys = N[C@@H](CCS)C(=O)O; NMeA = CN[C@@H](C)C(=O)O; dNMeA = CN[C@H](C)C(=O)O; Sar = CNCC(=O)O
Experiments:
Format in all cases: cell-based
Myostatin [1] = molecular target: T1, Myostatin (Homo sapiens, UniProt O14793); test: Reporter gene assay for myostatin signaling in HepG2 cell line, Evaluation Procedure (1), myostatin inhibition; details: Method A: Myostatin 10 ng/mL; read-out: IC50 (Luciferase) Myostatin HepG2
T1 construct: active myostatin (also called mature myostatin) is a homodimer consisting of two C-terminal growth factor domains; purchased R&D systems 788-G8/CF
T1 sequence (O14793 267-375): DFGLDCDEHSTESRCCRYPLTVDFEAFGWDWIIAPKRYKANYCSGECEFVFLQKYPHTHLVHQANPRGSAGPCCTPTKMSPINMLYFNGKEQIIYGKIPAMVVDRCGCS
Method: (§1) In this Example, the in vitro myostatin inhibitory effects of the peptides synthesized in Examples 1 and 2 were evaluated using a reporter gene assay for myostatin signaling in HepG2 cell line.
(§2) HepG2 cell line (HB-8065, ATCC) cultured in EMEM (055-08975, WAKO Industries) containing 10% FBS (10270106, Gibco) and 50 µg/mL gentamicin (11980-14, Nacalai Tesque) was seeded in 96-well plates (167008, Thermo) at 2.0 × 10^4 cells/well and incubated in a CO2 incubator (37°C, 5% CO2) for 24 hours. The pGL3(CAGA)12-luc plasmid, namely a pGL3 vector (E1751, Promega) having a luciferase gene inserted downstream of a promoter sequence with 12 CAGA repeats attached, was added to the wells along with a transfection reagent (X-treamGENE9 DNA Transfection Reagent, 6365809001, Roche) at a concentration of 0.04 µg/well. The cell line was cultured in a CO2 incubator (37°C, 5% CO2) for 24 hours for transfection. The medium was discarded and replaced with EMEM containing 50 µL/well of 0.1% bovine serum albumin (A7030, Sigma) and 50 µg/mL gentamicin, and incubated in a CO2 incubator (37°C, 5% CO2) for 2 hours.
(§3) Myostatin (788-G8/C, R&D systems) or GDF-11 (1958-GD-G8/CF, R&D systems) was added so that the final concentrations were those listed in Table 5.
(§4) A 4-fold dilution series of various peptides synthesized in Examples 1 and 2 was added to achieve 0.006-100 nmol/L (myostatin inhibition) and 0.12-2000 nmol/L (GDF-11 inhibition). At this time, blank wells, in which neither myostatin, GDF-11, nor each peptide was added, were also prepared and incubated in a CO2 incubator (37°C, 5% CO2) for 20 to 24 hours.
(§5) The medium containing the cells was removed, and a mixture containing PBS (14190144, Thermo) and a chromogenic substrate One-Glo Luciferase Assay System (E6120, Promega) at a ratio of 1:1 was added to each well at 100 µL/well. This was stirred with a plate shaker for 5 min and transferred to a 384-well plate (3570, Corning) at a volume of 20 µL/well.
(§6) The plate was centrifuged at 1,000 × g for 1 min and the luminescence signal (700 nm luminescence) was measured using a plate reader (Envision 2104, PerkinElmer). Based on the measured values, IC50 values of the peptides were calculated using software (Prism 9, GraphPad). […]
(§7) In this Example, the in vitro myostatin inhibitory effects of the peptides synthesized in Examples 10 and 11 were evaluated according to the Evaluation Procedure (1) in Example 3.

GDF-11 [2] = molecular target: T2, GDF-11 (Homo sapiens, UniProt O95390); test: Reporter gene assay for myostatin signaling in HepG2 cell line, Evaluation Procedure (1), GDF-11 inhibition; details: Method A: GDF-11 10 ng/mL; read-out: IC50 (Luciferase) GDF-11 HepG2
T2 construct: purchased R&D systems 1958-GD-G8/CF
T2 sequence (O95390 299-407): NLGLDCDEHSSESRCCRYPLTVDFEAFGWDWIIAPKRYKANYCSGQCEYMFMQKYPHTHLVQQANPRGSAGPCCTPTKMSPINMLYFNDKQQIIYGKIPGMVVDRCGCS
Method: as §1, §2, §3, §4, §5, §6, §7

GDF-11 [3] = molecular target: T2, GDF-11; test: HepG2 reporter gene assay, Evaluation Procedure (2): 2-concentrations assay, GDF-11 inhibition; details: for inhibition: read-out: inhibition rate (GDF-11 inhibition assay)
In short: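 HepG2 cells carrying the transfected pGL3(CAGA)12-luc reporter, a pGL3 vector with luciferase placed downstream of 12 CAGA repeats, were stimulated with GDF-11 at a final 10 ng/mL together with test peptide. Blank wells received no GDF-11 and no peptide. Plates were incubated 20 to 24 hours at 37°C with 5% CO2. Luminescence from One-Glo substrate was read to calculate percent inhibition.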

Myostatin [4] = molecular target: T1, Myostatin; test: HepG2 reporter gene assay, Evaluation Procedure (2): 2-concentrations assay, myostatin inhibition; details: HepG2
In short: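 Myostatin inhibition was measured in a luciferase reporter assay using HepG2 cells transfected with a pGL3 vector containing 12 CAGA repeats upstream of luciferase. After 20 to 24 hours with 10 ng/mL myostatin, cells received One-Glo:PBS (1:1) at 100 µL/well, were shaken for 5 min, and 20 µL/well was moved to 384-well plates and read on an Envision 2104.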

[5] = HepG2, first GDF-11 column of Table 7-3/7-4, GDF-11 10 ng/mL, peptide at the lower of the 2 concentrations
[6] = HepG2, second GDF-11 column of Table 7-3/7-4, GDF-11 10 ng/mL, peptide at the higher of the 2 concentrations
[7] = Table 7-3/7-4, myostatin 10 ng/mL, peptide at the higher of the 2 concentrations, read-out: inhibition rate (myostatin inhibition assay)
[8] = Table 7-3/7-4, myostatin 10 ng/mL, peptide at the lower of the 2 concentrations, read-out: inhibition rate (myostatin inhibition assay)

Row | Structure (SMILES) | IC50 (Myostatin [1]) [nM] | IC50 (GDF-11 [2]) [nM] | inhibition (GDF-11 [3]; [5]) [%] | inhibition (GDF-11 [3]; [6]) [%] | inhibition at 0.1 µM (Myostatin [4]; [7]) [%] | inhibition at 0.03 µM (Myostatin [4]; [8]) [%] | inhibition at 0.03 µM (GDF-11 [3]; HepG2, peptide 30nM, GDF-11 10 ng/mL, read-out: GDF11 Inhibition 30nM) [%] | inhibition at 0.1 µM (GDF-11 [3]; HepG2, peptide 100nM, GDF-11 10 ng/mL, read-out: GDF11 Inhibition 100nM) [%] | inhibition at 0.03 µM (Myostatin [4]; peptide 30nM, Myostatin 10 ng/mL, read-out: Myostatin Inhibition 30nM) [%] | inhibition at 0.1 µM (Myostatin [4]; peptide 100nM, Myostatin 10 ng/mL, read-out: Myostatin Inhibition 100nM) [%]
1 | CC[C@H](C)[C@@H]1NC(=O)[C@H](Cc2ccc(O)cc2)N(C)C(=O)[C@H](Cc2ccc(O)cc2)NC(=O)[C@H](Cc2ccc(-c3ccccc3)cc2)NC(=O)[C@H](C)NC(=O)CN(CCCC(=O)O)C(=O)CSC[C@H](C(=O)O)NC(=O)[C@H](Cc2ccccc2)N(C)C(=O)[C@H](C)N(C)C(=O)[C@H](CC(C)C)NC(=O)[C@H](Cc2ccccc2)N(C)C(=O)[C@H](CCCNC(=N)N)NC(=O)[C@H](Cc2ccc(C(=O)O)cc2)NC(=O)[C@H](Cc2cccc(OCC(=O)O)c2)NC(=O)[C@@H](C)N(C)C1=O [Myostatin_99_v118] ({CH2CO}-[Gly(N(CH2)3COOH)]A[Bip]Y[NMeY]I[dNMeA][Phe(3-OCH2COOH)][Phe(4-COOH)]R[NMeF]L[NMeA][NMeF][dC]-OH; thioether N-15) | 23.1 | 4030 | – | – | – | – | – | – | – | –
2 | CCCCCCC[C@@H]1NC(=O)[C@H](Cc2ccccc2)N(C)C(=O)[C@H](CCCNC(=N)N)NC(=O)[C@H](Cc2ccc(C(=O)O)cc2)NC(=O)[C@H](Cc2cccc(OCC(=O)O)c2)NC(=O)[C@H](C)N(C)C(=O)[C@H]([C@@H](C)CC)NC(=O)[C@H](Cc2ccccc2)N(C)C(=O)[C@H](Cc2ccc(O)cc2)NC(=O)[C@H](Cc2c[nH]c3ccccc23)NC(=O)[C@H](C)NC(=O)CN(CCCC(=O)O)C(=O)CSC[C@@H](C(N)=O)N(C)C(=O)[C@H](Cc2ccccc2)N(C)C(=O)[C@H](C)N(C)C1=O [Myostatin_99_v440] ({CH2CO}-[Gly(N(CH2)3COOH)]AWY[NMeF]I[NMeA][Phe(3-OCH2COOH)][Phe(4-COOH)]R[NMeF][X1][NMeA][NMeF][NMeC]-NH2; thioether N-15) | – | – | 0 | 9 | 100 | 99 | – | – | – | –
3 | CCCCCCC[C@@H]1NC(=O)[C@H](Cc2ccccc2)N(C)C(=O)[C@H](CCCNC(=N)N)NC(=O)[C@H](Cc2ccc(C(=O)O)cc2)NC(=O)[C@H](Cc2cccc(OCC(=O)O)c2)NC(=O)[C@H](C)N(C)C(=O)[C@H]([C@@H](C)CC)NC(=O)[C@H](Cc2ccccc2)N(C)C(=O)[C@H](Cc2ccc(O)cc2)NC(=O)[C@H](Cc2c[nH]c3ccccc23)NC(=O)[C@H](C)NC(=O)CN(CCCC(=O)O)C(=O)CSCC[C@H](C(=O)O)NC(=O)[C@H](Cc2ccccc2)N(C)C(=O)[C@H](C)N(C)C1=O [Myostatin_99_v441] ({CH2CO}-[Gly(N(CH2)3COOH)]AWY[NMeF]I[NMeA][Phe(3-OCH2COOH)][Phe(4-COOH)]R[NMeF][X1][NMeA][NMeF][d(hCys)]-OH; thioether N-15) | – | – | 0 | 0 | 100 | 100 | – | – | – | –
4 | CCCCCCC[C@@H]1NC(=O)[C@H](Cc2ccccc2)N(C)C(=O)[C@H](CCCNC(=N)N)NC(=O)[C@H](Cc2ccc(C(=O)O)cc2)NC(=O)[C@H](Cc2cccc(OCC(=O)O)c2)NC(=O)[C@H](C)N(C)C(=O)[C@H]([C@@H](C)CC)NC(=O)[C@H](Cc2ccccc2)N(C)C(=O)[C@H](Cc2ccc(O)cc2)NC(=O)[C@H](Cc2c[nH]c3ccccc23)NC(=O)[C@H](C)NC(=O)CN(CCCC(=O)O)C(=O)CSCC[C@@H](C(=O)O)NC(=O)[C@H](Cc2ccccc2)N(C)C(=O)[C@H](C)N(C)C1=O [Myostatin_99_v442] ({CH2CO}-[Gly(N(CH2)3COOH)]AWY[NMeF]I[NMeA][Phe(3-OCH2COOH)][Phe(4-COOH)]R[NMeF][X1][NMeA][NMeF][hCys]-OH; thioether N-15) | – | – | 0 | 0 | 100 | 100 | – | – | – | –
5 | CCCCCCC[C@@H]1NC(=O)[C@H](Cc2ccccc2)N(C)C(=O)[C@H](CCCNC(=N)N)NC(=O)[C@H](Cc2ccc(C(=O)O)cc2)NC(=O)[C@H](Cc2cccc(OCC(=O)O)c2)NC(=O)[C@H](C)N(C)C(=O)[C@H]([C@@H](C)CC)NC(=O)[C@H](Cc2ccccc2)N(C)C(=O)[C@H](Cc2ccc(O)cc2)NC(=O)[C@H](Cc2c[nH]c3ccccc23)NC(=O)[C@H](C)NC(=O)CN(CCCC(=O)O)C(=O)[C@H](C)N(C)C(=O)[C@@H](C)NC(=O)[C@H](Cc2ccccc2)N(C)C(=O)[C@H](C)N(C)C1=O [Myostatin_99_v450] (cyclo(AWY[NMeF]I[NMeA][Phe(3-OCH2COOH)][Phe(4-COOH)]R[NMeF][X1][NMeA][NMeF][dA][NMeA][Gly(N(CH2)3COOH)])) | – | – | 0 | 0 | 100 | 100 | – | – | – | –
6 | CCCCCCC[C@@H]1NC(=O)[C@H](Cc2ccccc2)N(C)C(=O)[C@H](CCCNC(=N)N)NC(=O)[C@H](Cc2ccc(C(=O)O)cc2)NC(=O)[C@H](Cc2cccc(OCC(=O)O)c2)NC(=O)[C@H](C)N(C)C(=O)[C@H]([C@@H](C)CC)NC(=O)[C@H](Cc2ccccc2)N(C)C(=O)[C@H](Cc2ccc(O)cc2)NC(=O)[C@H](Cc2c[nH]c3ccccc23)NC(=O)[C@H](C)NC(=O)[C@H](C)N(C)C(=O)[C@H](C)N(C)C(=O)CNC(=O)[C@H](Cc2ccccc2)N(C)C(=O)[C@H](C)N(C)C1=O [Myostatin_99_v455] (cyclo(AWY[NMeF]I[NMeA][Phe(3-OCH2COOH)][Phe(4-COOH)]R[NMeF][X1][NMeA][NMeF]G[NMeA][NMeA])) | – | – | 1 | 0 | 100 | 99 | – | – | – | –
7 | CC[C@H](C)[C@@H]1NC(=O)[C@H](Cc2ccccc2)N(C)C(=O)[C@H](Cc2ccc(O)cc2)NC(=O)[C@H](Cc2c[nH]c3ccccc23)NC(=O)[C@H](CCCNC(=N)N)NC(=O)[C@H](C)NC(=O)CSC[C@@H](C(N)=O)NC(=O)[C@H](Cc2ccccc2)N(C)C(=O)[C@H](C)N(C)C(=O)[C@H](CC(C)C)NC(=O)[C@H](Cc2ccccc2)N(C)C(=O)[C@H](CCCNC(=N)N)NC(=O)[C@H](Cc2ccc(O)cc2)NC(=O)[C@H](Cc2ccc(O)cc2)NC(=O)CN(C)C1=O [Myostatin_Myostatin_000099] ({CH2CO}-ARWY[NMeF]I[Sar]YYR[NMeF]L[NMeA][NMeF]C-NH2; thioether N-15) | – | – | – | – | – | – | 0 | 19 | 56 | 87

Reference: EP4786487A1, “PEPTIDE” (Peptidream Inc, priority 2023, dated 2025)
